The nature of data set [1]: Lipophilicity, log P of the compound. Particulars: octanol/water. Format: physicochemical.
Data set [2] is described as follows: Cytotoxicity against african green monkey Vero cells after 72 hrs by MTT assay. Format: cell-based. The settings on record: chlorocebus sabaeus. For orientation: Tetrazolium assays rely on reduction of a dye to a coloured formazan, in cell work by metabolically active cells.
In another data set the test system is Mycolicibacterium phlei. Put plainly: Antimycobacterial activity against Mycobacterium phlei CMCC 93201 after 72 hrs by serial double dilution method. In kind it is functional. The settings on record: CMCC 93201, 72 h.
Data set [3] has as its system Mycolicibacterium smegmatis. Put plainly: Antimycobacterial activity against Mycobacterium smegmatis CMCC 93202 after 72 hrs by serial double dilution method. The settings on record: CMCC 93202, 72 h. Format: functional.
Data set [4] relates to Mycobacterium tuberculosis. In words: Antimycobacterial activity against Mycobacterium tuberculosis H37Rv ATCC 27294 after 72 hrs by serial double dilution method. Format: functional. The settings on record: H37Rv ATCC 27294, 72 h.
Data set [5] has as its system Mycobacterium tuberculosis. Put plainly: Antimycobacterial activity against Mycobacterium tuberculosis 09710 after 72 hrs by serial double dilution method. Format: functional. The settings on record: Mycobacterium tuberculosis, 09710, 72 h.

Values after ≈ are worked out from the molar mass of the structure shown. A value given as a limit tells only on which side of the number the result lay.

In turn, `CCO/N=C1/C(=O)N(CCN(C)C2CCCN(c3c(F)cc4c(=O)c(C(=O)O)cn(C5CC5)c4c3OC)C2)c2ccccc21` (centres undefined) registered a logP in data set [1] of 0.96. In addition, it took 60.5 µM to reach half-maximal cytotoxicity in data set [2] (CC50 at 72 h). For the same molecule, the results for the MIC (in the data set with Mycolicibacterium phlei; in data set [3]) were 3.12 µg/mL (≈ 5.15 µM) and 6.25 µg/mL (≈ 10.3 µM), respectively.
The molecule `COc1c(N2CCCC(N(C)CCN3C(=O)/C(=N\NC(N)=O)c4ccccc43)C2)c(F)cc2c(=O)c(C(=O)O)cn(C3CC3)c12` (centres undefined) returned a CC50 at 72 h in data set [2] of 56.1 µM. Further, the minimal inhibitory concentration (MIC) (in the data set on Mycolicibacterium phlei; in data set [3]) was 12.5 µg/mL (≈ 20.2 µM) in each case.
For `COc1c(N2C[C@@H]3CCCN[C@@H]3C2)c(F)cc2c(=O)c(C(=O)O)cn(C3CC3)c12` [MOXIFLOXACIN], the MIC in data set [4] was 0.25 µg/mL (≈ 0.623 µM); in data set [5], below 0.5 µg/mL; in the data set on Mycolicibacterium phlei, 0.2 µg/mL (≈ 0.498 µM); in data set [3], 0.1 µg/mL (≈ 0.249 µM).
As for `COc1c(N2CCCC(N(C)CCN3C(=O)C(=O)c4ccccc43)C2)c(F)cc2c(=O)c(C(=O)O)cn(C3CC3)c12` (centres undefined), in data set [2], the midpoint of cytotoxicity, the CC50 at 72 h, lay at 137 µM. The MIC (against Mycolicibacterium phlei; in data set [3]) was 25 µg/mL (≈ 44.4 µM) each time.
The molecule `COc1c(N2CCCC(N(C)CCN3C(=O)/C(=N\NC(N)=S)c4cc(F)ccc43)C2)c(F)cc2c(=O)c(C(=O)O)cn(C3CC3)c12` (centres undefined) had a log partition coefficient (logP) in data set [1] of 1.8. The CC50 at 72 h in data set [2] is 313 µM. The MIC came to 3.12 µg/mL (≈ 4.77 µM) against Mycolicibacterium phlei and 6.25 µg/mL (≈ 9.56 µM) in data set [3].
For the molecule `COc1c(N2CCCC(N(C)CCN3C(=O)C(=O)c4cc(F)ccc43)C2)c(F)cc2c(=O)c(C(=O)O)cn(C3CC3)c12` (centres undefined), the values for the MIC (in data set [5]; against Mycolicibacterium phlei; in data set [3]) were 64 µg/mL (≈ 110 µM), 25 µg/mL (≈ 43.1 µM) and 12.5 µg/mL (≈ 21.5 µM), respectively. Also, the CC50 at 72 h in data set [2] amounted to 96.2 µM.
The molecule `CO/N=C1/C(=O)N(CCN(C)C2CCCN(c3c(F)cc4c(=O)c(C(=O)O)cn(C5CC5)c4c3OC)C2)c2ccc(F)cc21` (centres undefined) registered a CC50 at 72 h in data set [2] of 12.8 µM. Moreover, the MIC was 3.12 µg/mL (≈ 5.12 µM) in the data set with Mycolicibacterium phlei and 6.25 µg/mL (≈ 10.3 µM) in data set [3].
The matching figures for `COc1c(N2CCCC(N(C)CCN3C(=O)/C(=N/O)c4cc(F)ccc43)C2)c(F)cc2c(=O)c(C(=O)O)cn(C3CC3)c12` (centres undefined): 306 µM, 6.25 µg/mL (≈ 10.5 µM) and 12.5 µg/mL (≈ 21 µM).
As to `CNC1CCCN(c2c(F)cc3c(=O)c(C(=O)O)cn(C4CC4)c3c2OC)C1` (centres undefined) [BALOFLOXACIN], the MIC worked out at 8 µg/mL (≈ 20.5 µM) in data set [4], 16 µg/mL (≈ 41.1 µM) in data set [5], 0.78 µg/mL (≈ 2 µM) with Mycolicibacterium phlei and 0.39 µg/mL (≈ 1 µM) in data set [3]. Moreover, the logP in data set [1] is -1.11. The CC50 at 72 h in data set [2] was determined as 317 µM.
For `COc1c(N2CCCC(N(C)CCN3C(=O)/C(=N\Nc4ccccc4)c4cc(F)ccc43)C2)c(F)cc2c(=O)c(C(=O)O)cn(C3CC3)c12` (centres undefined), in data set [2], the half-maximal cytotoxic concentration (CC50) at 72 h is below 6 µM. The minimum inhibitory concentration (MIC) in the data set on Mycolicibacterium phlei stood at 3.12 µg/mL (≈ 4.65 µM); in data set [3] it was 6.25 µg/mL (≈ 9.32 µM).
The matching figures for `COc1c(N2CCCC(N(C)CCN3C(=O)/C(=N\NC(N)=O)c4cc(F)ccc43)C2)c(F)cc2c(=O)c(C(=O)O)cn(C3CC3)c12` (centres undefined): 57 µM, 6.25 µg/mL (≈ 9.8 µM) and 6.25 µg/mL (≈ 9.8 µM).
In data set [2], `CO/N=C1/C(=O)N(CCN(C)C2CCCN(c3c(F)cc4c(=O)c(C(=O)O)cn(C5CC5)c4c3OC)C2)c2ccccc21` (centres undefined) returned a CC50 at 72 h of 15 µM. Also, the MIC against Mycolicibacterium phlei is 3.12 µg/mL (≈ 5.27 µM); in data set [3], 6.25 µg/mL (≈ 10.6 µM).
`CCO/N=C1/C(=O)N(CCN(C)C2CCCN(c3c(F)cc4c(=O)c(C(=O)O)cn(C5CC5)c4c3OC)C2)c2ccc(F)cc21` (centres undefined): the logP in data set [1] came out at 1.29. The same molecule came in with a CC50 at 72 h in data set [2] of 53.1 µM. Besides, the minimum inhibitory concentration (MIC) came to 3.12 µg/mL (≈ 5 µM) in the data set with Mycolicibacterium phlei and 6.25 µg/mL (≈ 10 µM) in data set [3].
`COc1c(N2CCCC(N(C)CCN3C(=O)/C(=N\NC(N)=S)c4ccccc43)C2)c(F)cc2c(=O)c(C(=O)O)cn(C3CC3)c12` (centres undefined) yielded a logP in data set [1] of 1.4. This molecule had a CC50 at 72 h in data set [2] of 294 µM. In addition, the MIC worked out at 3.12 µg/mL (≈ 4.91 µM) with Mycolicibacterium phlei and 6.25 µg/mL (≈ 9.83 µM) in data set [3].
As to `COc1c(N2CCCC(N(C)CCN3C(=O)/C(=N\Nc4ccccc4)c4ccccc43)C2)c(F)cc2c(=O)c(C(=O)O)cn(C3CC3)c12` (centres undefined), the CC50 at 72 h in data set [2] is below 6.1 µM. Further, the MIC in the data set with Mycolicibacterium phlei worked out at 3.12 µg/mL (≈ 4.78 µM); in data set [3], 6.25 µg/mL (≈ 9.58 µM).

In general, logP refers to a log measure of how a compound divides between an organic and an aqueous phase. One may read the CC50 as the concentration that lowers cell viability or growth by half. In general, MIC refers to the least concentration at which growth counts as inhibited.

Values taken from ChEMBL document CHEMBL1208676, “Synthesis and in vitro antimycobacterial activity of balofloxacin ethylene isatin derivatives” (Eur J Med Chem, 2010).
